Test results as given in the NIST ThermoML archive (doi:10.1016/j.jct.2011.06.020).

Assay: refractive index (Na D-line) (dimensionless); xn = mol fraction of the nth substance listed
Conditions: 101 kPa, Liquid, Standard Abbe refractometry

CN1CCNCC1 [N-methylpiperazine] + O
refractive index
Conditions | 293.15 K | 298.15 K | 303.15 K | 308.15 K | 313.15 K | 323.15 K | 328.15 K | 333.15 K
x1 = 0.0521 | 1.374 | 1.373 | 1.373 | 1.372 | 1.371 | 1.369 | 1.368 | 1.366
x1 = 0.0725 | 1.389 | 1.388 | 1.387 | 1.386 | 1.384 | 1.382 | 1.381 | 1.379
x1 = 0.1039 | 1.406 | 1.405 | 1.403 | 1.402 | 1.401 | 1.397 | 1.396 | 1.396
x1 = 0.2091 | 1.44 | 1.438 | 1.436 | 1.434 | 1.432 | 1.428 | 1.427 | 1.425
x1 = 0.3101 | 1.453 | 1.451 | 1.449 | 1.447 | 1.445 | 1.441 | 1.439 | 1.437
x1 = 0.4096 | 1.459 | 1.457 | 1.455 | 1.453 | 1.451 | 1.446 | 1.444 | 1.442
x1 = 0.5109 | 1.462 | 1.46 | 1.458 | 1.456 | 1.454 | 1.449 | 1.447 | 1.445
x1 = 0.608 | 1.464 | 1.462 | 1.46 | 1.457 | 1.455 | 1.451 | 1.448 | 1.446
x1 = 0.7065 | 1.465 | 1.463 | 1.461 | 1.458 | 1.456 | 1.451 | 1.449 | 1.447
x1 = 0.8069 | 1.466 | 1.463 | 1.461 | 1.459 | 1.456 | 1.452 | 1.449 | 1.447
x1 = 0.8819 | 1.466 | 1.464 | 1.461 | 1.459 | 1.457 | 1.452 | 1.449 | 1.447
x1 = 1 | 1.466 | 1.464 | 1.461 | 1.459 | 1.457 | 1.452 | 1.449 | 1.447
